Measurements from patent US5326788A, “Biological fluid purification system” (priority 1992, dated 1994).

Key:
[1] = system: purified reverse transcriptase from avian myeloblastosis virus; experiment: Direct incubation with purified reverse transcriptase; assay type: biochemical
Method: (§1) In FIG. 1, open squares represent hypericin-treated and pluses represent pseudohypericin treated HIV. […] Inactivation of the reverse transcriptase activity of the virions was not a result of a direct inhibition of reverse transcriptase activity per se, as incubation of either compound directly with purified reverse transcriptase from either avian myeloblastosis virus or murine leukemia virus had no effect on enzyme activity. Furthermore, aliquots of HIV derived from these H9 cell cultures lost the ability to replicate in culture when exposed to as little as 0.77 micrograms/ml of hypericin.

[2] = biological target: purified reverse transcriptase from murine leukemia virus (Moloney murine leukemia virus isolate Shinnick, UniProt P03355); experiment: as above; assay type: biochemical
Method: as §1

[3] = Addition of hypericin to whole blood: standard blood chemistries, complete blood count, coagulation profile; set-up: species or system human; MCV / MCH / MCHC / Bilirubin (direct): unit not given here
Method: Triplicate samples of blood were drawn from two normal individuals directly into vacuum tubes. Into one set of tubes was added hypericin dissolved in 10% ethanol, 40% propylene glycol, 50% water to a final concentration of hypericin of 0.1 micrograms/ml of blood. A second set of tubes received hypericin at 1.0 micrograms/ml of blood. The final concentration of ethanol was 0.01% and of propylene glycol 0.04% in each sample, respectively. The third set served as an untreated control. Hypericin-treated and untreated samples were taken directly to a clinical laboratory for testing of standard blood chemistries, complete blood count, and a coagulation profile.

Radiation Leukemia Virus = experiment: Inhibition of virus budding from infected AQR cells, reverse transcriptase assay; assay type: cell-based, Radiation Leukemia Virus in AQR (murine leukemia) cells; conditions: 1 hour incubation, supernatant after 24 hours; read-out: concentration completely inhibiting virus budding
Method: AQR (murine leukemia) cells producing Radiation Leukemia Virus (prepared as described in Meruelo, D., J. Exp. Med. 149: 898-909, 1979; and Bach, R. G. et al., J. Exp. Med. 160: 270-285, 1984) were incubated for 1 hour with various concentrations of synthetic hypericin (micrograms/ml shown in FIG. 3). The cells were then washed four times with phosphate buffer saline and incubated in fresh culture medium for 24 or 48 hours. Supernatants were then collected, pelleted (at 1000×g) for 15 minutes to remove whole cells and then repelleted at 100,000×g for 1 hour to collect virus particles. The second pellet was used for a reverse transcriptase assay, conducted as described in U.S. application Ser. No. 084,008 (Aug. 10, 1987) and 172,064 (Mar. 23, 1988).
The results of the reverse transcriptase assay are plotted in FIG. 3. […] Thus, the minimum incubation period that would destroy the ability of HIV-infected cells to participate in propagation of the HIV infection is likely to be much smaller than the 24 hours employed as the minimum waiting period in this assay.

Cc1cc(O)c2c(=O)c3c(O)cc(O)c4c5c(O)cc(O)c6c(=O)c7c(O)cc(C)c8c1c2c(c34)c(c78)c65 [hypericin]
effect on enzyme activity of purified reverse transcriptase [1]: no effect
effect on enzyme activity of purified reverse transcriptase [2]: no effect
effect on blood chemistries and hematologic parameters (summary) ([3]; 1.0 and 0.1 micrograms/ml): no significant effect
BUN ([3]; Subject #1, 0.1 micrograms/ml): 13 mg/dL
Bilirubin ([3]; Subject #1, 0.1 micrograms/ml): 0.5 mg/dL
Bilirubin (direct) ([3]; Subject #1, 0.1 micrograms/ml): 0.1
CO2 ([3]; Subject #1, 0.1 micrograms/ml): 28 meq/l
Ca^+ ([3]; Subject #1, 0.1 micrograms/ml): 10.1 mg/dL
Cl^- ([3]; Subject #1, 0.1 micrograms/ml): 106 meq/l
Creat ([3]; Subject #1, 0.1 micrograms/ml): 0.9 mg/dL
ESR ([3]; Subject #1, 0.1 micrograms/ml): 5 mm/hr
Hb ([3]; Subject #1, 0.1 micrograms/ml): 15.8 gm/dl
Hct ([3]; Subject #1, 0.1 micrograms/ml): 46.7%
K^+ ([3]; Subject #1, 0.1 micrograms/ml): 4.2 meq/l
LDH ([3]; Subject #1, 0.1 micrograms/ml): 154 IU/l
MCH ([3]; Subject #1, 0.1 micrograms/ml): 30.8
MCHC ([3]; Subject #1, 0.1 micrograms/ml): 33.8
MCV ([3]; Subject #1, 0.1 micrograms/ml): 91.0
Na^+ ([3]; Subject #1, 0.1 micrograms/ml): 140 meq/l
SGOT ([3]; Subject #1, 0.1 micrograms/ml): 19 IU/l
WBC ([3]; Subject #1, 0.1 micrograms/ml): 8.1 /cu mm
albumin ([3]; Subject #1, 0.1 micrograms/ml): 4.8 gm/dl
alk phos ([3]; Subject #1, 0.1 micrograms/ml): 76 IU/l
cholesterol ([3]; Subject #1, 0.1 micrograms/ml): 255 mg/dL
glucose ([3]; Subject #1, 0.1 micrograms/ml): 107 mg/dL
lymphs ([3]; Subject #1, 0.1 micrograms/ml): 34.9%
monos ([3]; Subject #1, 0.1 micrograms/ml): 4.2%
neutr ([3]; Subject #1, 0.1 micrograms/ml): 60.9%
phosphate ([3]; Subject #1, 0.1 micrograms/ml): 3.7 mg/dL
total protein ([3]; Subject #1, 0.1 micrograms/ml): 7.5 gm/dl
uric acid ([3]; Subject #1, 0.1 micrograms/ml): 5.7 mg/dL
BUN ([3]; Subject #1, 1.0 micrograms/ml): 12 mg/dL
Bilirubin ([3]; Subject #1, 1.0 micrograms/ml): 0.5 mg/dL
Bilirubin (direct) ([3]; Subject #1, 1.0 micrograms/ml): 0.1
CO2 ([3]; Subject #1, 1.0 micrograms/ml): 28 meq/l
Ca^+ ([3]; Subject #1, 1.0 micrograms/ml): 10.2 mg/dL
Cl^- ([3]; Subject #1, 1.0 micrograms/ml): 106 meq/l
Creat ([3]; Subject #1, 1.0 micrograms/ml): 0.9 mg/dL
ESR ([3]; Subject #1, 1.0 micrograms/ml): 4 mm/hr
Hb ([3]; Subject #1, 1.0 micrograms/ml): 16.0 gm/dl
Hct ([3]; Subject #1, 1.0 micrograms/ml): 47.6%
K^+ ([3]; Subject #1, 1.0 micrograms/ml): 4.3 meq/l
LDH ([3]; Subject #1, 1.0 micrograms/ml): 153 IU/l
MCH ([3]; Subject #1, 1.0 micrograms/ml): 30.6
MCHC ([3]; Subject #1, 1.0 micrograms/ml): 33.6
MCV ([3]; Subject #1, 1.0 micrograms/ml): 91.1
Na^+ ([3]; Subject #1, 1.0 micrograms/ml): 137 meq/l
SGOT ([3]; Subject #1, 1.0 micrograms/ml): 15 IU/l
WBC ([3]; Subject #1, 1.0 micrograms/ml): 8.0 /cu mm
albumin ([3]; Subject #1, 1.0 micrograms/ml): 4.8 gm/dl
alk phos ([3]; Subject #1, 1.0 micrograms/ml): 75 IU/l
cholesterol ([3]; Subject #1, 1.0 micrograms/ml): 258 mg/dL
glucose ([3]; Subject #1, 1.0 micrograms/ml): 105 mg/dL
lymphs ([3]; Subject #1, 1.0 micrograms/ml): 32.9%
monos ([3]; Subject #1, 1.0 micrograms/ml): 5.5%
neutr ([3]; Subject #1, 1.0 micrograms/ml): 61.6%
phosphate ([3]; Subject #1, 1.0 micrograms/ml): 3.6 mg/dL
total protein ([3]; Subject #1, 1.0 micrograms/ml): 7.5 gm/dl
uric acid ([3]; Subject #1, 1.0 micrograms/ml): 5.6 mg/dL
BUN ([3]; Subject #2, 0.1 micrograms/ml): 9 mg/dL
Bilirubin ([3]; Subject #2, 0.1 micrograms/ml): 0.5 mg/dL
Bilirubin (direct) ([3]; Subject #2, 0.1 micrograms/ml): 0.1
CO2 ([3]; Subject #2, 0.1 micrograms/ml): 27 meq/l
Ca^+ ([3]; Subject #2, 0.1 micrograms/ml): 9.5 mg/dL
Cl^- ([3]; Subject #2, 0.1 micrograms/ml): 108 meq/l
Creat ([3]; Subject #2, 0.1 micrograms/ml): 0.7 mg/dL
ESR ([3]; Subject #2, 0.1 micrograms/ml): 1 mm/hr
Hb ([3]; Subject #2, 0.1 micrograms/ml): 13.0 gm/dl
Hct ([3]; Subject #2, 0.1 micrograms/ml): 37.8%
K^+ ([3]; Subject #2, 0.1 micrograms/ml): 4.4 meq/l
LDH ([3]; Subject #2, 0.1 micrograms/ml): 110 IU/L
MCH ([3]; Subject #2, 0.1 micrograms/ml): 31.4
MCHC ([3]; Subject #2, 0.1 micrograms/ml): 34.4
MCV ([3]; Subject #2, 0.1 micrograms/ml): 91.4
Na^+ ([3]; Subject #2, 0.1 micrograms/ml): 140 meq/l
SGOT ([3]; Subject #2, 0.1 micrograms/ml): 15 IU/L
WBC ([3]; Subject #2, 0.1 micrograms/ml): 6.7 /cu mm
albumin ([3]; Subject #2, 0.1 micrograms/ml): 4.5 gm/dl
alk phos ([3]; Subject #2, 0.1 micrograms/ml): 51 IU/l
cholestrol ([3]; Subject #2, 0.1 micrograms/ml): 133 mg/dL
glucose ([3]; Subject #2, 0.1 micrograms/ml): 96 mg/dL
lymphs ([3]; Subject #2, 0.1 micrograms/ml): 33.1%
monos ([3]; Subject #2, 0.1 micrograms/ml): 4.9%
neutr ([3]; Subject #2, 0.1 micrograms/ml): 62.0%
phosphate ([3]; Subject #2, 0.1 micrograms/ml): 3.0 mg/dL
total protein ([3]; Subject #2, 0.1 micrograms/ml): 6.4 g/dL
uric acid ([3]; Subject #2, 0.1 micrograms/ml): 4.2 mg/dL
BUN ([3]; Subject #2, 1.0 micrograms/ml): 8 mg/dL
Bilirubin ([3]; Subject #2, 1.0 micrograms/ml): 0.5 mg/dL
Bilirubin (direct) ([3]; Subject #2, 1.0 micrograms/ml): 0.1
CO2 ([3]; Subject #2, 1.0 micrograms/ml): 27 meq/l
Ca^+ ([3]; Subject #2, 1.0 micrograms/ml): 9.5 mg/dL
Cl^- ([3]; Subject #2, 1.0 micrograms/ml): 108 meq/l
Creat ([3]; Subject #2, 1.0 micrograms/ml): 0.6 mg/dL
ESR ([3]; Subject #2, 1.0 micrograms/ml): 1 mm/hr
Hb ([3]; Subject #2, 1.0 micrograms/ml): 12.9 gm/dl
Hct ([3]; Subject #2, 1.0 micrograms/ml): 37.3%
K^+ ([3]; Subject #2, 1.0 micrograms/ml): 4.5 meq/l
LDH ([3]; Subject #2, 1.0 micrograms/ml): 97 IU/L
MCH ([3]; Subject #2, 1.0 micrograms/ml): 31.6
MCHC ([3]; Subject #2, 1.0 micrograms/ml): 34.6
MCV ([3]; Subject #2, 1.0 micrograms/ml): 91.3
Na^+ ([3]; Subject #2, 1.0 micrograms/ml): 141 meq/l
SGOT ([3]; Subject #2, 1.0 micrograms/ml): 14 IU/L
WBC ([3]; Subject #2, 1.0 micrograms/ml): 6.4 /cu mm
albumin ([3]; Subject #2, 1.0 micrograms/ml): 4.4 gm/dl
alk phos ([3]; Subject #2, 1.0 micrograms/ml): 52 IU/l
cholestrol ([3]; Subject #2, 1.0 micrograms/ml): 131 mg/dL
glucose ([3]; Subject #2, 1.0 micrograms/ml): 95 mg/dL
lymphs ([3]; Subject #2, 1.0 micrograms/ml): 32.0
monos ([3]; Subject #2, 1.0 micrograms/ml): 5.2%
neutr ([3]; Subject #2, 1.0 micrograms/ml): 62.8%
phosphate ([3]; Subject #2, 1.0 micrograms/ml): 3.1 mg/dL
total protein ([3]; Subject #2, 1.0 micrograms/ml): 6.3 g/dL
uric acid ([3]; Subject #2, 1.0 micrograms/ml): 4.1 mg/dL
IC100 (Radiation Leukemia Virus): 10 µg/mL
